In publication PMC8962522, “Direct interaction of TrkA/CD44v3 is essential for NGF-promoted aggressiveness of breast cancer cells” (Journal of Experimental & Clinical Cancer Research : CR, 2022):

Key:
Type in all cases: cell-based
[1] = system: TrkA/CD44v3 complex in HCC-1954 cells; assay: PLA TrkA/CD44v3 complex formation in HCC-1954 cells; conditions: Her2-like; NGF 100 ng/ml
Procedure: Cells (10,000 cells per well) were grown on acid-washed eight-well glass slides (Thermo Scientific) in the appropriate medium supplemented with 10% FBS for 24 h. After NGF treatment, paraformaldehyde (PAF)-fixed cells were incubated with 4% bovine serum albumin (BSA) or 5% FBS (for 1 h at 20 °C), followed by overnight incubation with primary antibodies (rabbit anti-TrkA or rabbit anti-IgG + mouse anti-pan-CD44; mouse anti-CD44v3; mouse anti-CD44v6; mouse anti-IgG2a; mouse anti-IgG2b; or mouse anti-IgG1). PLA was performed following the manufacturer’s instructions in the assay kit (Duolink PLA; Sigma–Aldrich). To obtain the correct representation of the PLA signal for each condition, 30 fields per condition were observed using a fluorescence microscope (Eclipse TiU; Nikon, Japan). The PLA signals (red dots) were automatically quantified using ImageJ software (with an in-house-developed plug-in). […]
Fig. 7 The TrkA/CD44v3 complex is formed in PR-negative breast cancer cells and tumors. TrkA/CD44v3 complex formation was measured in SUM159-PT (triple negative—i.e., ERα-, PR-, and Her2-) cells (A), T47-D (luminal A—i.e., ERα+, PR+, and Her2-) cells (B), BT-474 (luminal B—ERα+, PR+, and Her2+) cells (C), HCC-1954 (Her2-like—ERα-, PR-, and Her2+) cells (D), and 150 tumor patient samples obtained from US BioMax (HBre-Duc150Sur01) (E, F) using the proximity ligation assay (PLA). […]

[2] = system: CD44v6 in MDA-MB-231 cells; assay: Flow cytometry, plasma membrane CD44v6; conditions: MDA-MB-231, flow cytometry
Source text: (§1) The CD44v3- and CD44v6-containing isoforms expressing respectively exon 8 and 11(Fig. 1A) can interact with growth factor receptors. Using COS-7 cells with low CD44 and TrkA expression (Supplementary Fig. 1A-D), we differentially expressed TrkA and CD44s or a CD44 variant, either CD44v3 or CD44v6 (Fig. 1B, supplementary Fig. 2). […] Additionally, we evaluated the expression of TrkA and CD44v3 at the membrane level or in cells by immunofluorescence in MDA-MB-231 cells.
(§2) Supplementary file 13046_2022_2314_MOESM3_ESM.pdf: Additional file 3: Supplementary Figure 1. Validation of the ectopic expression of CD44 and/or TrkA in COS-7 cells. The expression of all CD44 isoforms (A), CD44 variant 3 (B), CD44 variant 6 (C) and TrkA ([…]; D) was evaluated by RT–qPCR (normalized using PUM-1). No expression of CD44, CD44 variants [3 or 6] or TrkA was detected in COS-7 cells (A-D) compared with that in cells transfected with the expression plasmid carrying each protein. […] Quantification of the PLA results was performed using ImageJ software (30 randomly chosen fields per condition of three different experiments). […] CD44v3 and CD44v6 levels at the plasma membrane were assessed by flow cytometry (A-D). The plasma membrane and total TrkA and CD44v3 levels were also quantified by confocal microscopy (E-H). […] The CD44v3/NGF interaction was evaluated using microscale thermophoresis (MST). […]

[3] = system: CD44v3 in MDA-MB-231 cells; assay: Immunofluorescence, membrane CD44v3; conditions: MDA-MB-231, immunofluorescence/confocal, NGF
Source text: as §1, §2

NGF: recombinant human β-NGF (Alomone Labs, Israel)
effect on TrkA/CD44v3 complex formation (PLA) in HCC-1954 cells [1]: NGF induction of CD44v3/TrkA complex formation was observed in SUM-159PT (TN) and HCC-1954 (Her2) cells | increase of plasma membrane CD44v6 ([2]; CD44v6-APC, histogram with No stim., NGF (5 min), NGF (30 min)): 6% | plasma membrane level of CD44v6 (in words) ([2]; NGF stimulation): increased the plasma membrane level of CD44v3 but not CD44v6 | level of CD44v3 at the membrane (in words) [3]: increased at the membrane until 15 min of NGF treatment and then decreased
